{
  "source": "patent US11452714B2",
  "about": "“Antibacterial agents including histidine kinase inhibitors” (Regents of the University of Minnesota, priority 2017, dated 2022)",
  "key": {"histidine kinase HK853 [1]": {"molecular_target": "T1, histidine kinase HK853 (Thermotoga maritima, UniProt Q9WZV7)", "T1 sequence (Q9WZV7 232-489)": "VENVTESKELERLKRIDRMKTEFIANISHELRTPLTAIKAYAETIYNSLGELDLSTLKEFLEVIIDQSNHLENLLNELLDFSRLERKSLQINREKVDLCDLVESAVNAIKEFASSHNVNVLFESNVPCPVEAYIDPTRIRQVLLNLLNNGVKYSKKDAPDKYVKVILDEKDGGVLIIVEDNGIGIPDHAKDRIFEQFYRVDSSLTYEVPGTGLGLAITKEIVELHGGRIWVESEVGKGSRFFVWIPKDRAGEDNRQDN", "assay": "biochemical", "procedure": "(§1) Triton X-100 was premixed with reaction buffer to yield 0.1% (v/v) in final 25-μL reactions. Samples were mixed and incubated in the dark at RT for 1 h before quenching with 8.6 μL 2×SDS-PAGE sample loading buffer and loading 10 μL on a 10%0/stacking gel. After SDS-PAGE, in-gel fluorescence detection elucidated HK853 activity, and silver staining of the gels ensured even protein loading. Integrated density values of the fluorescent gel bands were normalized as “% Activity” with respect to a control that contained no inhibitor. Data were plotted in GraphPad Prism (available from GraphPad Software, San Diego, Calif.) with relation to the log of molar inhibitor to determine IC50 values, using EQUATION 1."}, "histidine kinase HK853 [2]": {"molecular_target": "T1, histidine kinase HK853", "conditions": "for inhibition of HK853: non-native bases or nucleosides, in words", "procedure": "as §1"}, "HK853": {"molecular_target": "T2, HK853 (Thermotoga maritima, UniProt Q9WZV7)", "T2 sequence (Q9WZV7 232-489)": "T1 sequence (Q9WZV7 232-489)", "conditions": "for inhibition of HKs: in words; for IC50 values (95% confidence interval), n = 2: riluzole analogs, second TABLE 3, 0.1% Triton X-100", "procedure": "Triton X-100 was premixed with reaction buffer to yield 0.1% (v/v) in final 25-μL reactions. […] Samples were mixed and incubated in the dark at RT for 1 h before quenching with 8.6 μL 4×SDS-PAGE sample loading buffer and loading 15 μL on a 10% stacking gel. After SDS-PAGE, in-gel fluorescence detection elucidated HK853 activity, and coomassie staining of the gels ensured even protein loading. Integrated density values of the fluorescent gel bands were normalized as “% Activity” with respect to a control that contained no inhibitor."}, "[3]": {"conditions": "adenine derivatives, TABLE 1, N/I = no inhibition was observed"}, "[4]": {"conditions": "purine derivatives, TABLE 2, N/I = no inhibition"}, "[5]": {"conditions": "IC50, sulfonyl fluoride side chains, Example 4"}, "[6]": {"conditions": "IC50, purine derivatives, TABLE 2, N/I = no inhibition"}, "[7]": {"conditions": "phenyl-adenine derivatives, first TABLE 3, N/I = no inhibition"}},
  "note": "Where two headings read alike, the source gives them in different places.",
  "data": [
    {"smiles": "Nc1ncnc2c1ncn2C1OC(CO)C(O)C1O", "note": "(stereo not drawn) [Compound C12]", "values": [
      {"measurement": "IC50", "setting": "histidine kinase HK853 [1]", "value": 445, "unit": "µM"}
    ]},
    {"smiles": "Nc1nc2c(ncn2[C@@H]2O[C@H](CO)[C@@H](O)[C@H]2O)c(=O)[nH]1", "note": "[Guanosine, reference compound]", "values": [
      {"measurement": "inhibition of HK853", "setting": "histidine kinase HK853 [2]", "value": "did not appear to inhibit HK853"}
    ]},
    {"smiles": "OCC1OC(n2cnc3c(Cl)ncnc32)C(O)C1O", "note": "(stereo not drawn) [Compound C18]", "values": [
      {"measurement": "IC50", "setting": "histidine kinase HK853 [2]; [3]", "value": "N/I"}
    ]},
    {"smiles": "Cn1cnc2c(N)ncnc21", "note": "[Compound C13]", "values": [
      {"measurement": "IC50", "setting": "histidine kinase HK853 [1]; IC50, adenine derivatives, TABLE 1, N/I = no inhibition was observed", "value": 145, "unit": "µM"}
    ]},
    {"smiles": "Cn1cnc2ncnc(N)c21", "note": "[Compound C26]", "values": [
      {"measurement": "IC50", "setting": "histidine kinase HK853 [2]; [3]", "value": "N/I"}
    ]},
    {"smiles": "Nc1nc(Cl)c2nc[nH]c2n1", "note": "[CW20]", "values": [
      {"measurement": "IC50", "setting": "histidine kinase HK853 [2]; [4]", "value": 118, "unit": "µM"}
    ]},
    {"smiles": "c1ccc(Nc2ncnc3nc[nH]c23)cc1", "note": "[Compound C15]", "values": [
      {"measurement": "IC50", "setting": "histidine kinase HK853 [1]", "value": 7.6, "unit": "µM"}
    ]},
    {"smiles": "Clc1ccc(Nc2ncnc3[nH]cnc23)cc1", "note": "[CW37]", "values": [
      {"measurement": "IC50", "setting": "histidine kinase HK853 [1]", "value": 1700, "unit": "µM"}
    ]},
    {"smiles": "Nc1ncnc2c1ncn2C1OC(COC(=O)c2ccc(S(=O)(=O)F)cc2)C(O)C1O", "note": "(stereo not drawn) [6-O-benzoyl adenosine, R=SO2F]", "values": [
      {"measurement": "IC50", "setting": "histidine kinase HK853 [1]; [5]", "value": 5.3, "unit": "µM"}
    ]},
    {"smiles": "Nc1nc2ccc(NCc3ccc(S(=O)(=O)F)cc3)cc2s1", "note": "[riluzole analog with benzyl SO2F]", "values": [
      {"measurement": "IC50", "setting": "histidine kinase HK853 [1]; [5]", "value": 2.1, "unit": "µM"}
    ]},
    {"smiles": "Nc1nc2c(Cl)cc(Cl)cc2s1", "note": "[Rilu-10]", "values": [
      {"measurement": "inhibition of HKs", "setting": "HK853", "value": "did not significantly inhibit HKs"},
      {"measurement": "IC50 values (95% confidence interval), n = 2", "setting": "HK853", "value": "No Inhibition"}
    ]},
    {"smiles": "Fc1ccc(Nc2ncnc3[nH]cnc23)cc1", "note": "[CW38]", "values": [
      {"measurement": "IC50", "setting": "histidine kinase HK853 [1]", "value": 1900, "unit": "µM"}
    ]},
    {"smiles": "Nc1ncnc2c1ncn2C1OC(COC(=O)c2ccccc2)C(O)C1O", "note": "(stereo not drawn)", "values": [
      {"measurement": "IC50", "setting": "histidine kinase HK853 [1]", "value": 192, "unit": "µM"}
    ]},
    {"smiles": "Nc1nc2cc(Br)c(Br)cc2s1", "note": "[Rilu-11]", "values": [
      {"measurement": "inhibition of HKs", "setting": "HK853", "value": "did not significantly inhibit HKs"},
      {"measurement": "IC50 values (95% confidence interval), n = 2", "setting": "HK853", "value": "No Inhibition"}
    ]},
    {"smiles": "Nc1nc(F)nc2[nH]cnc12", "note": "[CW24]", "values": [
      {"measurement": "IC50", "setting": "histidine kinase HK853 [2]; [4]", "value": 310, "unit": "µM"}
    ]},
    {"smiles": "Cn1cnc2c(N)ncnc21", "note": "[CW29]", "values": [
      {"measurement": "IC50", "setting": "histidine kinase HK853 [1]; [6]", "value": 150, "unit": "µM"}
    ]},
    {"smiles": "OC[C@H]1O[C@@H](n2cnc3c(O)ncnc32)[C@H](O)[C@@H]1O", "note": "[Inosine, reference compound]", "values": [
      {"measurement": "inhibition of HK853", "setting": "histidine kinase HK853 [2]", "value": "did not appear to inhibit HK853"}
    ]},
    {"smiles": "CCCN(CCC)c1ncnc2c1ncn2C1OC(CO)C(O)C1O", "note": "(stereo not drawn) [Compound C19]", "values": [
      {"measurement": "IC50", "setting": "histidine kinase HK853 [1]", "value": 1100, "unit": "µM"}
    ]},
    {"smiles": "Nc1nc2nc[nH]c2c(=O)[nH]1", "note": "[Guanine, reference compound]", "values": [
      {"measurement": "inhibition of HK853", "setting": "histidine kinase HK853 [2]", "value": "did not appear to inhibit HK853"}
    ]},
    {"smiles": "Cn1cnc2ncnc(N)c21", "note": "[CW30]", "values": [
      {"measurement": "IC50", "setting": "histidine kinase HK853 [2]; [4]", "value": "N/I"}
    ]},
    {"smiles": "Clc1nc(Nc2ccccc2)c2nc[nH]c2n1", "note": "[CW36]", "values": [
      {"measurement": "IC50", "setting": "histidine kinase HK853 [2]; [7]", "value": "N/I"}
    ]},
    {"smiles": "OCC1OC(n2cnc3c(Nc4ccccc4)ncnc32)C(O)C1O", "note": "(stereo not drawn) [CW35]", "values": [
      {"measurement": "IC50", "setting": "histidine kinase HK853 [2]; [7]", "value": "N/I"}
    ]},
    {"smiles": "Nc1nc(Cl)nc2[nH]cnc12", "note": "[CW22]", "values": [
      {"measurement": "IC50", "setting": "histidine kinase HK853 [2]; [4]", "value": 156, "unit": "µM"}
    ]},
    {"smiles": "OCC1OC(n2cnc3c(Cl)ncnc32)C(O)C1O", "note": "(stereo not drawn) [CW19]", "values": [
      {"measurement": "IC50", "setting": "histidine kinase HK853 [2]; [4]", "value": "N/I"}
    ]},
    {"smiles": "Nc1nc(F)nc2c1ncn2C1OC(CO)C(O)C1O", "note": "(stereo not drawn) [CW25]", "values": [
      {"measurement": "IC50", "setting": "histidine kinase HK853 [1]; [6]", "value": 218, "unit": "µM"}
    ]}
  ]
}
